Structures can show the parent of a compound that is named as a salt. Bounds are passed on as bounds.

Sequence of Protein Kinase C beta 2 (PKCβII) (P05771 other isoform, or with tags, fused parts or gaps): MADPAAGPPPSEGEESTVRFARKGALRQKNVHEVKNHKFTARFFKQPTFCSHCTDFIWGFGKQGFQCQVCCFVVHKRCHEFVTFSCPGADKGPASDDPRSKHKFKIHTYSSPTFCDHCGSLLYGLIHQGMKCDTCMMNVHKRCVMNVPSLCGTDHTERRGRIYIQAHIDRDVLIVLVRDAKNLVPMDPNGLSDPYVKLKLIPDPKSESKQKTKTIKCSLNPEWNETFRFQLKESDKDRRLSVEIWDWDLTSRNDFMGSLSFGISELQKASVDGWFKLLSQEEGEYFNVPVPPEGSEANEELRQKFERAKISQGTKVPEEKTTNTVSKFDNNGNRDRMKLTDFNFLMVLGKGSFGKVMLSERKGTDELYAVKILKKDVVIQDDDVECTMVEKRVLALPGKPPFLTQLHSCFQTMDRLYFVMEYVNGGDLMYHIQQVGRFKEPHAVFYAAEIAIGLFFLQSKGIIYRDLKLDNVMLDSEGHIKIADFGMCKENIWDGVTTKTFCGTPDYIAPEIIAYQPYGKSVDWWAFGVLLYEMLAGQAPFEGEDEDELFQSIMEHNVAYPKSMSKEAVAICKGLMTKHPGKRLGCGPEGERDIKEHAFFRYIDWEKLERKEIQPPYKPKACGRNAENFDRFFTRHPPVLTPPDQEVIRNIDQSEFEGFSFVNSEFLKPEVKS

For the assay, the target named is Protein Kinase C beta 2 (PKCβII) (Homo sapiens (Human), UniProt P05771). The assay is described as follows: PKCβII coupled spectrophotometric kinase assay (PK/LDH, NADH absorbance at 340 nm). The class given is biochemical. The note with it: apparent Ki, ATP competitive inhibition model (Morrison equation); 0.1 mM ATP, 5 nM PKC, 30° C.; read-out: Ki app. How it is done:
Protein Kinase C beta 2 (PKCβII) catalyzes the production of ADP from ATP that accompanies the phosphoryl transfer to the PKC Pseudosubstrate peptide (A→S, RFARKGSLRQKNV). This transfer is coupled to the oxidation of β-NADH through the activities of Pyruvate Kinase (PK) and Lactate Dehydrogenase (LDH). β-NADH conversion to NAD+ is monitored by the decrease in absorbance at 340 nm (e=6.22 cm^−1 mM^−1) using a Molecular Devices SPECTRA max PLUS spectrophotometer.
A typical assay was carried out on a 96-well, clear microtiter plate in a Molecular Devices spectrophotometer for 20 minutes at 30° C. in 0.1 mL of assay buffer containing 50 mM HEPES, pH 7.4, 5 nM PKC, 23 units of pyruvate kinase, 33 units of lactate dehydrogenase, 0.15 mM peptide, 0.1 mM ATP, 1 mM DTT, 4 mM PEP, 8 mM MgCl2, 0.3 mM NADH, 60 mM CaCl2, 10 mg/mL PS, 50 ng/mL PMA, 7.5% DMSO and from about 10,000 nM to 0.169 nM compound inhibitor. Stock solutions of 3-sn-phosphatidyl-L-serine (PS) and phorbol-12-myristate-13-acetate (PMA) were sonicated for 30 seconds just prior to addition to assay buffer and assays were initiated by the addition of 100 μM ATP.
Steady-state kinetic parameters for the bi-bi kinase reaction were determined at saturating phospho-acceptor peptide substrate concentration (0.15 mM) by fitting initial velocity data to the Michaelis-Menten equation, v=Vmax[S]/(KM+[S]) where v is the measured initial velocity, Vmax is the maximal enzyme velocity, [S] is the ATP substrate concentration, and KM is the Michealis constant for ATP. Enzyme turnover values (kcat) were calculated according to […], where [E] is the total enzyme concentration. Enzyme inhibition constants (apparent Ki values) were determined by fitting initial velocities at variable inhibitor concentrations to a model for ATP competitive inhibition based on the Morrison equation). Morrison, J. F., Biochim. Biophys Acta 185: 269-286 (1969).
`C[C@@H]1CN(C(=O)N2Cc3c(Nc4nc(N5CCOCC5)ncc4F)n[nH]c3C2(C)C)[C@@H](C)CN1C` [Example B7, N-(5-fluoro-2-morpholin-4-ylpyrimidin-4-yl)-6,6-dimethyl-5-{[(2S,5R)-2,4,5-trimethylpiperazin-1-yl]carbonyl}-1,4,5,6-tetrahydropyrrolo[3,4-c]pyrazol-3-amine]: the Ki is 20.1 nM.

For the compound `COCc1ncc(F)c(Nc2n[nH]c3c2CN(C(=O)N2CC(CCO)N(C)C[C@@H]2C)C3(C)C)n1` (single isomer, unassigned) [Example N2], the Ki is less than 10 nM. Then `COCCCOc1ncc(F)c(Nc2n[nH]c3c2CN(C(=O)N2C[C@@H](C)N(C)C[C@@H]2C)C3(C)C)n1` [Example K10, N-[5-fluoro-2-(3-methoxypropoxy)pyrimidin-4-yl]-6,6-dimethyl-5-{[(2S,5R)-2,4,5-trimethylpiperazin-1-yl]carbonyl}-1,4,5,6-tetrahydropyrrolo[3,4-c]pyrazol-3-amine], with 28.4 nM; and `CCc1ncc(F)c(Nc2n[nH]c3c2CN(C(=O)N2C[C@@H](C)N(C)C[C@@H]2C)C3(C)C)n1` [Example E1, N-(2-ethyl-5-fluoropyrimidin-4-yl)-6,6-dimethyl-5-{[(2S,5R)-2,4,5-trimethylpiperazin-1-yl]carbonyl}-1,4,5,6-tetrahydropyrrolo[3,4-c]pyrazol-3-amine acetate salt], with 10.5 nM.

As for `C[C@H]1CN(C)C(C)(C)CN1C(=O)N1Cc2c(Nc3nc(OCC(F)(F)F)ncc3F)n[nH]c2C1(C)C` [Example K8, N-[5-fluoro-2-(2,2,2-trifluoroethoxy)pyrimidin-4-yl]-6,6-dimethyl-5-{[(2S)-2,4,5,5-tetramethylpiperazin-1-yl]carbonyl}-1,4,5,6-tetrahydropyrrolo[3,4-c]pyrazol-3-amine], the Ki was found to be 0.181 nM. Then `CCc1ncc(F)c(Nc2n[nH]c3c2CN(C(=O)N2C[C@@H](C)N(CC4CCOCC4)C[C@@H]2C)C3(C)C)n1` [Example J10, 5-{[(2S,5R)-2,5-dimethyl-4-(tetrahydro-2H-pyran-4-ylmethyl)piperazin-1-yl]carbonyl}-N-(2-ethyl-5-fluoropyrimidin-4-yl)-6,6-dimethyl-1,4,5,6-tetrahydropyrrolo[3,4-c]pyrazol-3-amine], with less than 10 nM; and `COc1ncc(F)c(Nc2n[nH]c3c2CN(C(=O)N2CC(CCO)N(C)C[C@@H]2C)C3(C)C)n1` (single isomer, unassigned) [Example K26], with 54.7 nM. As to `Cc1cccc(Nc2n[nH]c3c2CN(C(=O)C2(F)CCN(C)CC2)C3(C)C)n1` [Example J2, 5-[(4-fluoro-1-methylpiperidin-4-yl)carbonyl]-6,6-dimethyl-N-(6-methylpyridin-2-yl)-1,4,5,6-tetrahydropyrrolo[3,4-c]pyrazol-3-amine], the Ki was 59.9 nM.

As to `CCOc1ncc(F)c(Nc2n[nH]c3c2CN(C(=O)N2CC(CCO)N(C)C[C@@H]2C)C3(C)C)n1` (stereo partly drawn) [Example K23, 2-((5S)-4-{[3-[(2-ethoxy-5-fluoropyrimidin-4-yl)amino]-6,6-dimethyl-4,6-dihydropyrrolo[3,4-c]pyrazol-5(1H)-yl]carbonyl}-1,5-dimethylpiperazin-2-yl)ethanol], the Ki is less than 10 nM. In the case of `Cc1ncc(F)c(Nc2n[nH]c3c2CN(C(=O)N2CC4(CCCC4)N(C)C[C@@H]2C)C3(C)C)n1` [Example A10, 5-{[(8S)-6,8-dimethyl-6,9-diazaspiro[4.5]dec-9-yl]carbonyl}-N-(5-fluoro-2-methylpyrimidin-4-yl)-6,6-dimethyl-1,4,5,6-tetrahydropyrrolo[3,4-c]pyrazol-3-amine], the Ki was 1.01 nM. In the case of `CC[C@H]1CN(C(=O)N2Cc3c(Nc4nc(C)ncc4F)n[nH]c3C2(C)C)CCN1C` [Example H4, 5-{[(3S)-3-ethyl-4-methylpiperazin-1-yl]carbonyl}-N-(5-fluoro-2-methylpyrimidin-4-yl)-6,6-dimethyl-1,4,5,6-tetrahydropyrrolo[3,4-c]pyrazol-3-amine] it was 86 nM; in that of `CCOc1nccc(Nc2n[nH]c3c2CN(C(=O)N2C[C@@H](C)N(C)C[C@@H]2C)C3(C)C)n1` [Example E3, N-(2-ethoxypyrimidin-4-yl)-6,6-dimethyl-5-{[(2S,5R)-2,4,5-trimethylpiperazin-1-yl]carbonyl}-1,4,5,6-tetrahydropyrrolo[3,4-c]pyrazol-3-amine], 13.1 nM; in that of `CCNc1ncc(F)c(Nc2n[nH]c3c2CN(C(=O)N2C[C@@H](C)N(C4CCOCC4)C[C@@H]2C)C3(C)C)n1` [Example A12, N^4-(5-{[(2S,5R)-2,5-dimethyl-4-(tetrahydro-2H-pyran-4-yl)piperazin-1-yl]carbonyl}-6,6-dimethyl-1,4,5,6-tetrahydropyrrolo[3,4-c]pyrazol-3-yl)-N^2-ethyl-5-fluoropyrimidine-2,4-diamine], less than 10 nM. In the case of `CCN1C[C@H](C)N(C(=O)N2Cc3c(Nc4nc(OC)ncc4F)n[nH]c3C2(C)C)C[C@H]1C` [Example AA1, 5-{[(2S,5R)-4-ethyl-2,5-dimethylpiperazin-1-yl]carbonyl}-N-(5-fluoro-2-methoxypyrimidin-4-yl)-6,6-dimethyl-1,4,5,6-tetrahydropyrrolo[3,4-c]pyrazol-3-amine], the Ki came to 22.9 nM. Then `COCCOc1ncc(F)c(Nc2n[nH]c3c2CN(C(=O)C2(F)CCN(C)CC2)C3(C)C)n1` [Example L2, N-[5-fluoro-2-(2-methoxyethoxy)pyrimidin-4-yl]-5-[(4-fluoro-1-methylpiperidin-4-yl)carbonyl]-6,6-dimethyl-1,4,5,6-tetrahydropyrrolo[3,4-c]pyrazol-3-amine], with 168 nM. Then `C[C@H]1CN(C)C(C)(C)CN1C(=O)N1Cc2c(Nc3nc(N(C)C)ncc3F)n[nH]c2C1(C)C` [Example A2, N^4-(6,6-dimethyl-5-{[(2S)-2,4,5,5-tetramethylpiperazin-1-yl]carbonyl}-1,4,5,6-tetrahydropyrrolo[3,4-c]pyrazol-3-yl)-5-fluoro-N^2,N^2-dimethylpyrimidine-2,4-diamine], with 8.75 nM. Then `COc1ncc(F)c(Nc2n[nH]c3c2CN(C(=O)N2CC(CCO)N(C)C[C@@H]2C)C3(C)C)n1` (single isomer, unassigned) [Example K25], with 36.5 nM; and `CCOc1ncc(F)c(Nc2n[nH]c3c2CN(C(=O)N2C[C@@H](C)N(CC4CCOCC4)C[C@@H]2C)C3(C)C)n1` [Example K19, 5-{[(2S,5R)-2,5-dimethyl-4-(tetrahydro-2H-pyran-4-ylmethyl)piperazin-1-yl]carbonyl}-N-(2-ethoxy-5-fluoropyrimidin-4-yl)-6,6-dimethyl-1,4,5,6-tetrahydropyrrolo[3,4-c]pyrazol-3-amine], with less than 10 nM; and `Cc1ccnc(Nc2n[nH]c3c2CN(C(=O)N2C[C@@H](C)N(C4CCOCC4)C[C@@H]2C)C3(C)C)n1` [Example J12, 5-{[(2S,5R)-2,5-dimethyl-4-(tetrahydro-2H-pyran-4-yl)piperazin-1-yl]carbonyl}-6,6-dimethyl-N-(4-methylpyrimidin-2-yl)-1,4,5,6-tetrahydropyrrolo[3,4-c]pyrazol-3-amine], with less than 10 nM. Turning to `CCNc1ncc(F)c(Nc2n[nH]c3c2CN(C(=O)N2C[C@@H](C)N(CCOC)C[C@@H]2C)C3(C)C)n1` [Example B4, N^2-ethyl-5-fluoro-N4-(5-{[(2S,5R)-4-(2-methoxyethyl)-2,5-dimethylpiperazin-1-yl]carbonyl}-6,6-dimethyl-1,4,5,6-tetrahydropyrrolo[3,4-c]pyrazol-3-yl)pyrimidine-2,4-diamine], the Ki was determined as 13.5 nM.

These data come from patent US9518060B2, “Substituted pyrrolo[3,4-c]pyrazoles as PKC kinase inhibitors” (PFIZER INC., priority 2007, dated 2016).
